The target in experiment [1] is T1, D,D-dipeptidase (Enterococcus faecium) (UniProt Q9EYV8).
T1 sequence (whole entry): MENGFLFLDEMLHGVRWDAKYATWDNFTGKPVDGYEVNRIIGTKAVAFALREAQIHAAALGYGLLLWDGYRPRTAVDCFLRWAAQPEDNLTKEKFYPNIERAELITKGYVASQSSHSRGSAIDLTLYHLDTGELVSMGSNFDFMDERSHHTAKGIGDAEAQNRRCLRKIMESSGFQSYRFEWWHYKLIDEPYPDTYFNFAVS
The experiment is described as follows: Activity of D,D-dipeptidase in vancomycin-revertant and teicoplanin-sensitive VanB-type Enterococcus faecium BM4661 assessed as enzyme mediated D-Alanine release per mg protein at 8 ug/ml.

The target in experiment [2] is T1, D,D-dipeptidase (Enterococcus faecium). Nature of the experiment: Activity of D,D-dipeptidase in vancomycin-resistant and teicoplanin-sensitive VanB-type Enterococcus faecium BM4659 assessed as enzyme mediated D-Alanine release per mg protein at 8 ug/ml.
Experiment [3] addresses T2, D,D-carboxypeptidase (Enterococcus faecium) (UniProt Q7BI95).
T2 sequence (whole entry): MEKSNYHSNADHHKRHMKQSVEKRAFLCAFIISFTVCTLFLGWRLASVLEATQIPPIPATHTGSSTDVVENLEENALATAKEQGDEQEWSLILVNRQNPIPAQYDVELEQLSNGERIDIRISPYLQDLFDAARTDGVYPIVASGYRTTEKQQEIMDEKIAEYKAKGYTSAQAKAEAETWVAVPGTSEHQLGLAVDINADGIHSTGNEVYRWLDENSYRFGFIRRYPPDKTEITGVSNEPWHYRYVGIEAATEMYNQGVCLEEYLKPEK
The experiment is described as follows: Activity of D,D-carboxypeptidase in vancomycin-resistant and teicoplanin-sensitive VanB-type Enterococcus faecium BM4659 cytoplasmic fraction assessed as enzyme mediated D-Alanine release per mg protein at 8 ug/ml.

Experiment [4] relates to Enterococcus faecium. The experiment is described as follows: Antimicrobial activity against vancomycin-dependent VanB-type Enterococcus faecium BM4660. It counts as functional.
The test system of experiment [5] is Enterococcus faecium. Nature of the experiment: Antimicrobial activity against vancomycin-resistant and teicoplanin-sensitive VanB-type Enterococcus faecium BM4659. It counts as functional.
The subject of experiment [6] is Enterococcus faecium. Nature of the experiment: Antimicrobial activity against vancomycin-revertant and teicoplanin-sensitive VanB-type Enterococcus faecium BM4661. It counts as functional.
For experiment [7], the target named is T2, D,D-carboxypeptidase (Enterococcus faecium). Nature of the experiment: Activity of D,D-carboxypeptidase in vancomycin-dependent VanB-type Enterococcus faecium BM4660 cytoplasmic fraction assessed as enzyme mediated D-Alanine release per mg protein at 8 ug/ml.
The target is the same in experiment [8]. Nature of the experiment: Activity of D,D-carboxypeptidase in vancomycin-revertant and teicoplanin-sensitive VanB-type Enterococcus faecium BM4661 membrane fraction assessed as enzyme mediated D-Alanine release per mg protein at 8 ug/ml.
The target is the same in experiment [9]. The experiment is described as follows: Activity of D,D-carboxypeptidase in vancomycin-resistant and teicoplanin-sensitive VanB-type Enterococcus faecium BM4659 membrane fraction assessed as enzyme mediated D-Alanine release per mg protein at 8 ug/ml.
For experiment [10] the target is unchanged. The experiment is described as follows: Activity of D,D-carboxypeptidase in vancomycin-revertant and teicoplanin-sensitive VanB-type Enterococcus faecium BM4661 cytoplasmic fraction assessed as enzyme mediated D-Alanine release per mg protein at 8 ug/ml.
For experiment [11] the target is unchanged. Nature of the experiment: Activity of D,D-carboxypeptidase in vancomycin-dependent VanB-type Enterococcus faecium BM4660 membrane fraction assessed as enzyme mediated D-Alanine release per mg protein at 8 ug/ml.
Experiment [12] deals with T1, D,D-dipeptidase (Enterococcus faecium). The experiment is described as follows: Activity of D,D-dipeptidase in vancomycin-dependent VanB-type Enterococcus faecium BM4660 assessed as enzyme mediated D-Alanine release per mg protein at 8 ug/ml.

Each structure is given as a SMILES string. In brackets after ≈: the same amount, converted by molar mass.

Usually MIC stands for the lowest concentration that inhibits growth of the organism. A lower MIC goes with greater potency. Turning to `CN[C@H](CC(C)C)C(=O)N[C@H]1C(=O)N[C@@H](CC(N)=O)C(=O)N[C@H]2C(=O)N[C@H]3C(=O)N[C@H](C(=O)N[C@H](C(=O)O)c4cc(O)cc(O)c4-c4cc3ccc4O)[C@H](O)c3ccc(c(Cl)c3)Oc3cc2cc(c3O[C@@H]2O[C@H](CO)[C@@H](O)[C@H](O)[C@H]2O[C@H]2C[C@](C)(N)[C@H](O)[C@H](C)O2)Oc2ccc(cc2Cl)[C@H]1O` [VANCOMYCIN], the Activity in experiment [1] came out at 128 nmol/min/mg; in experiment [2], 255 nmol/min/mg; in experiment [3], 13 nmol/min/mg; in experiment [7], 5.3 nmol/min/mg; in experiment [8] it was 27 nmol/min/mg; in experiment [9] it was 115 nmol/min/mg. Also, the Activity in experiment [10] amounted to 4.3 nmol/min/mg; in experiment [11] it was 30 nmol/min/mg; in experiment [12] it was 99 nmol/min/mg. In addition, the MIC in experiment [4] is 256 µg/mL (≈ 177 µM); in experiment [5], 64 µg/mL (≈ 44.2 µM); in experiment [6], 256 µg/mL (≈ 177 µM).

(Values after ChEMBL document CHEMBL1649201, “VanB-type Enterococcus faecium clinical isolate successively inducibly resistant to, dependent on, and constitutively resistant to vancomycin” (2009).)
